Data reported in US20240092784A1, “CONDENSED HETEROCYCLIC COMPOUND” (NISSAN CHEMICAL CORPORATION, priority 2020, published 2024).

Target: human SPR (Homo sapiens (Human), UniProt P35270)
Assay: Evaluation Example 2: Measurement of human SPR inhibitory activity (seven concentrations, sepiapterin absorbance at 420 nm)
Type: biochemical
Conditions: sepiapterin absorbance, Table 41, read-out: concentration at 50% inhibition of human SPR (IC50)
Summary of the method: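 Reactions ran 240 min at room temperature in 100 mM Tris-HCl pH 7.5 with 0.01% BSA. They contained tag-cleaved, E. coli-expressed full-length human SPR (diluted to 150 ng/mL), seven compound concentrations from 0.14 to 100 nM, and sepiapterin/NADPH added as a 120 μM/160 μM solution. Inhibition was calculated from sepiapterin absorbance at 420 nm.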

Chain of human SPR (P35270 whole entry): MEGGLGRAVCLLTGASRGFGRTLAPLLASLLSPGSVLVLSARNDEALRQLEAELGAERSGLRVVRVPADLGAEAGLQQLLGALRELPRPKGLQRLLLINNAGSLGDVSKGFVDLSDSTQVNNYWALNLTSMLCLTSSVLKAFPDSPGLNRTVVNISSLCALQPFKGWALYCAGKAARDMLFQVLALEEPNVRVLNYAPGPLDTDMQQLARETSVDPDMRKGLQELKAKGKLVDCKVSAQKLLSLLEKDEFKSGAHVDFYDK

Row | Compound | IC50
1 | Cc1nn2c(O)c(C(=O)NC3CC3)c(=O)n(CC(C)C)c2c1/C=C/C(=O)N1CCc2cnccc21 [Synthesis Example 705, (E)-N-Cyclopropyl-3-(3-(2,3-dihydro-1H-pyrrolo[3,2-c]pyridin-1-yl)-3-oxoprop-1-en-1-yl)-7-hydroxy-4-isobutyl-2-methyl-5-oxo-4,5-dihydropyrazolo[1,5-a]pyrimidine-6-carboxamide] | 1.58 nM
2 | Cc1nn2c(O)c(C(=O)NC3CC3)c(=O)n(CC(C)C)c2c1/C=C/C(=O)N1CCOCC12CC2 [Synthesis Example 706, (E)-N-Cyclopropyl-7-hydroxy-4-isobutyl-2-methyl-5-oxo-3-(3-oxo-3-(7-oxa-4-azaspiro[2.5]octan-4-yl)prop-1-en-1-yl)-4,5-dihydropyrazolo[1,5-a]pyrimidine-6-carboxamide] | 0.82 nM
3 | CCN1CCN(C(=O)/C=C/c2c(C)nn3c(O)c(C(=O)NC4CC4)c(=O)n(CC(C)C)c23)[C@@H](C)C1 [Synthesis Example 707, (S,E)-N-Cyclopropyl-3-(3-(4-ethyl-2-methylpiperazin-1-yl)-3-oxoprop-1-en-1-yl)-7-hydroxy-4-isobutyl-2-methyl-5-oxo-4,5-dihydropyrazolo[1,5-a]pyrimidine-6-carboxamide] | 0.84 nM
4 | CC(C)Cn1c(=O)c(C(=O)NC2CC2)c(O)n2ncc(/C=C/C(=O)N3C[C@H]4COC[C@H]4C3)c12 [Synthesis Example 708, N-Cyclopropyl-7-hydroxy-4-isobutyl-5-oxo-3-((E)-3-oxo-3-((3aR,6aS)-tetrahydro-1H-furo[3,4-c]pyrrol-5(3H)-yl)prop-1-en-1-yl)-4,5-dihydropyrazolo[1,5-a]pyrimidine-6-carboxamide] | 0.74 nM
5 | CC(C)Cn1c(=O)c(C(=O)NC2CC2)c(O)n2ncc(/C=C/C(=O)N(C)Cc3cnccn3)c12 [Synthesis Example 709, (E)-N-Cyclopropyl-7-hydroxy-4-isobutyl-3-(3-(methyl(pyrazin-2-ylmethyl)amino)-3-oxoprop-1-en-1-yl)-5-oxo-4,5-dihydropyrazolo[1,5-a]pyrimidine-6-carboxamide] | 0.85 nM
6 | CC(C)Cn1c(=O)c(C(=O)NC2CC2)c(O)n2ncc(/C=C/C(=O)N(C)Cc3ccccn3)c12 [Synthesis Example 710, (E)-N-Cyclopropyl-7-hydroxy-4-isobutyl-3-(3-(methyl(pyridin-2-ylmethyl)amino)-3-oxoprop-1-en-1-yl)-5-oxo-4,5-dihydropyrazolo[1,5-a]pyrimidine-6-carboxamide] | 1.01 nM
7 | CC(C)Cn1c(=O)c(C(=O)NC2CC2)c(O)n2ncc(/C=C/C(=O)N(C)Cc3ncccn3)c12 [Synthesis Example 711, (E)-N-Cyclopropyl-7-hydroxy-4-isobutyl-3-(3-(methyl(pyrimidin-2-ylmethyl)amino)-3-oxoprop-1-en-1-yl)-5-oxo-4,5-dihydropyrazolo[1,5-a]pyrimidine-6-carboxamide] | 1.2 nM
8 | CC(C)Cn1c(=O)c(C(=O)NC2CC2)c(O)n2ncc(/C=C/C(=O)N(C)Cc3cccnc3)c12 [Synthesis Example 712, (E)-N-Cyclopropyl-7-hydroxy-4-isobutyl-3-(3-(methyl(pyridin-3-ylmethyl)amino)-3-oxoprop-1-en-1-yl)-5-oxo-4,5-dihydropyrazolo[1,5-a]pyrimidine-6-carboxamide] | 1.19 nM
9 | CC(C)Cn1c(=O)c(C(=O)NC2CC2)c(O)n2ncc(/C=C/C(=O)N3CCN(C)C[C@@H]3C)c12 [Synthesis Example 713, (S,E)-N-Cyclopropyl-3-(3-(2,4-dimethylpiperazin-1-yl)-3-oxoprop-1-en-1-yl)-7-hydroxy-4-isobutyl-5-oxo-4,5-dihydropyrazolo[1,5-a]pyrimidine-6-carboxamide] | 0.96 nM
10 | CC(C)Cn1c(=O)c(C(=O)NC2CC2)c(O)n2ncc(/C=C/C(=O)N3CCN(CC4CC(F)(F)C4)CC3)c12 [Synthesis Example 714, (E)-N-Cyclopropyl-3-(3-(4-((3,3-difluorocyclobutyl)methyl)piperazin-1-yl)-3-oxoprop-1-en-1-yl)-7-hydroxy-4-isobutyl-5-oxo-4,5-dihydropyrazolo[1,5-a]pyrimidine-6-carboxamide] | 2.54 nM
11 | CC(C)Cn1c(=O)c(C(=O)NC2CC2)c(O)n2ncc(/C=C/C(=O)N3CCN(C4CC(F)(F)C4)C[C@H]3C)c12 [Synthesis Example 715, (R,E)-N-Cyclopropyl-3-(3-(4-(3,3-difluorocyclobutyl)-2-methylpiperazin-1-yl)-3-oxoprop-1-en-1-yl)-7-hydroxy-4-isobutyl-5-oxo-4,5-dihydropyrazolo[1,5-a]pyrimidine-6-carboxamide] | 1.28 nM
12 | CC(C)Cn1c(=O)c(C(=O)NC2CC2)c(O)n2ncc(/C=C/C(=O)N3C[C@@H](C)OC[C@H]3C)c12 [Synthesis Example 716, N-Cyclopropyl-3-((E)-3-((2R,5R)-2,5-dimethylmorpholino)-3-oxoprop-1-en-1-yl)-7-hydroxy-4-isobutyl-5-oxo-4,5-dihydropyrazolo[1,5-a]pyrimidine-6-carboxamide] | 0.88 nM
13 | CC(C)Cn1c(=O)c(C(=O)NC2CC2)c(O)n2ncc(/C=C/C(=O)N3C[C@H](C)OC[C@@H]3C)c12 [Synthesis Example 717, N-Cyclopropyl-3-((E)-3-((2S,5S)-2,5-dimethylmorpholino)-3-oxoprop-1-en-1-yl)-7-hydroxy-4-isobutyl-5-oxo-4,5-dihydropyrazolo[1,5-a]pyrimidine-6-carboxamide] | 0.78 nM
14 | CC(C)Cn1c(=O)c(C(=O)NC2CC2)c(O)n2ncc(/C=C/C(=O)N3C[C@H](C)OC[C@H]3C)c12 [Synthesis Example 718, N-Cyclopropyl-3-((E)-3-((2S,5R)-2,5-dimethylmorpholino)-3-oxoprop-1-en-1-yl)-7-hydroxy-4-isobutyl-5-oxo-4,5-dihydropyrazolo[1,5-a]pyrimidine-6-carboxamide] | 0.74 nM
15 | CC(C)Cn1c(=O)c(C(=O)NC2CC2)c(O)n2ncc(/C=C/C(=O)N3C4CCC3CC(F)(F)C4)c12 [Synthesis Example 719, (E)-N-Cyclopropyl-3-(3-(3,3-difluoro-8-azabicyclo[3.2.1]octan-8-yl)-3-oxoprop-1-en-1-yl)-7-hydroxy-4-isobutyl-5-oxo-4,5-dihydropyrazolo[1,5-a]pyrimidine-6-carboxamide] | 0.77 nM
16 | CC(C)Cn1c(=O)c(C(=O)NC2CC2)c(O)n2ncc(/C=C/C(=O)N3CC4CCC(C3)C4(F)F)c12 [Synthesis Example 720, (E)-N-Cyclopropyl-3-(3-(8,8-difluoro-3-azabicyclo[3.2.1]octan-3-yl)-3-oxoprop-1-en-1-yl)-7-hydroxy-4-isobutyl-5-oxo-4,5-dihydropyrazolo[1,5-a]pyrimidine-6-carboxamide] | 1.03 nM
17 | CC(C)Cn1c(=O)c(C(=O)NC2CC2)c(O)n2ncc(/C=C/C(=O)N3CCCC34CC4)c12 [Synthesis Example 721, (E)-N-Cyclopropyl-7-hydroxy-4-isobutyl-5-oxo-3-(3-oxo-3-(4-azaspiro[2.4]heptan-4-yl)prop-1-en-1-yl)-4,5-dihydropyrazolo[1,5-a]pyrimidine-6-carboxamide] | 1.05 nM
18 | CC(C)Cn1c(=O)c(C(=O)NC2CC2)c(O)n2ncc(/C=C/C(=O)N3C[C@@H](F)[C@@H](F)C3)c12 [Synthesis Example 722, N-Cyclopropyl-3-((E)-3-(cis-3,4-difluoropyrrolidin-1-yl)-3-oxoprop-1-en-1-yl)-7-hydroxy-4-isobutyl-5-oxo-4,5-dihydropyrazolo[1,5-a]pyrimidine-6-carboxamide] | 0.81 nM
19 | CC(C)Cn1c(=O)c(C(=O)NC2CC2)c(O)n2ncc(/C=C/C(=O)N3CCc4cncnc43)c12 [Synthesis Example 724, (E)-N-Cyclopropyl-3-(3-(5,6-dihydro-7H-pyrrolo[2,3-d]pyrimidin-7-yl)-3-oxoprop-1-en-1-yl)-7-hydroxy-4-isobutyl-5-oxo-4,5-dihydropyrazolo[1,5-a]pyrimidine-6-carboxamide] | 1.03 nM
20 | CC(C)Cn1c(=O)c(C(=O)NC2CC2)c(O)n2ncc(/C=C/C(=O)N3CCc4ccccc43)c12 [Synthesis Example 725, (E)-N-Cyclopropyl-7-hydroxy-3-(3-(indolin-1-yl)-3-oxoprop-1-en-1-yl)-4-isobutyl-5-oxo-4,5-dihydropyrazolo[1,5-a]pyrimidine-6-carboxamide] | 3.61 nM
21 | CC(C)Cn1c(=O)c(C(=O)NC2CC2)c(O)n2ncc(/C=C/C(=O)N3CCN(C4CC(F)(F)C4)C[C@@H]3C)c12 [Synthesis Example 726, (S,E)-N-Cyclopropyl-3-(3-(4-(3,3-difluorocyclobutyl)-2-methylpiperazin-1-yl)-3-oxoprop-1-en-1-yl)-7-hydroxy-4-isobutyl-5-oxo-4,5-dihydropyrazolo[1,5-a]pyrimidine-6-carboxamide] | 1.35 nM
22 | CC(C)Cn1c(=O)c(C(=O)NC2CC2)c(O)n2ncc(/C=C/C(=O)N3CCC[C@H]3c3ccccc3)c12 [Synthesis Example 727, (S,E)-N-Cyclopropyl-7-hydroxy-4-isobutyl-5-oxo-3-(3-oxo-3-(2-phenylpyrrolidin-1-yl)prop-1-en-1-yl)-4,5-dihydropyrazolo[1,5-a]pyrimidine-6-carboxamide] | 1.34 nM
23 | CC(C)Cn1c(=O)c(C(=O)NC2CC2)c(O)n2ncc(/C=C/C(=O)N3CCOc4cnccc43)c12 [Synthesis Example 728, (E)-N-Cyclopropyl-3-(3-(2,3-dihydro-1H-pyrido[3,4-b][1,4]oxazin-1-yl)-3-oxoprop-1-en-1-yl)-7-hydroxy-4-isobutyl-5-oxo-4,5-dihydropyrazolo[1,5-a]pyrimidine-6-carboxamide] | 1.07 nM
24 | CC(C)Cn1c(=O)c(C(=O)NC2CC2)c(O)n2ncc(/C=C/C(=O)N3CCOc4ncccc43)c12 [Synthesis Example 729, (E)-N-Cyclopropyl-3-(3-(2,3-dihydro-1H-pyrido[2,3-b][1,4]oxazin-1-yl)-3-oxoprop-1-en-1-yl)-7-hydroxy-4-isobutyl-5-oxo-4,5-dihydropyrazolo[1,5-a]pyrimidine-6-carboxamide] | 1.05 nM
